In ChEMBL document CHEMBL3988442, “University of Dundee, Small-Polar-MMV Screening Library” (2021):
“And” between values parts separate entries of the source, which are not always exact repeats. Equal entries are not always repeated.

Columns and labels:
[1] = Trypanosoma cruzi proteasome luciferase counter-screen; assay type: functional, N/A
Proteasome subunit beta = target: T1, Proteasome subunit beta (Trypanosoma cruzi, UniProt O96673); experiment: Trypanosoma cruzi proteasome chymotrypsin-like activity (TcProtChymo) assay.; assay type: functional
T1 sequence (O96673 whole entry): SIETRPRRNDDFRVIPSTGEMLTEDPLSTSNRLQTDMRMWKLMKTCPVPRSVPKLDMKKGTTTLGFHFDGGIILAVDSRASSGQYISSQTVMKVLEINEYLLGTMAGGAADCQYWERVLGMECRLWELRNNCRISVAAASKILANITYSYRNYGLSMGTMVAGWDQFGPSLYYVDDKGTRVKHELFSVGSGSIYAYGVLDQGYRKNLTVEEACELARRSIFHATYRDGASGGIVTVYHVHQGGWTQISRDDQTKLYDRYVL

Schistosoma mansoni = experiment: High throughput screening of compounds against Schistosoma mansoni motility; assay type: functional; design: dose or concentration left out as unconfirmed
[2] = To identify inhibition of the IFN signalling (Jak-Stat) pathway via expression of an eGFP reporter gene under the control of an IFN-stimulated response element (ISRE) containing MxA promoter.; assay type: functional, Homo sapiens
Histidine--tRNA ligase = target: T2, Histidine--tRNA ligase (Leishmania infantum, UniProt A4I591); experiment: Leishmania infantum Histidine tRNA synthetase (LdHisRS); assay type: functional
T2 sequence (A4I591 whole entry): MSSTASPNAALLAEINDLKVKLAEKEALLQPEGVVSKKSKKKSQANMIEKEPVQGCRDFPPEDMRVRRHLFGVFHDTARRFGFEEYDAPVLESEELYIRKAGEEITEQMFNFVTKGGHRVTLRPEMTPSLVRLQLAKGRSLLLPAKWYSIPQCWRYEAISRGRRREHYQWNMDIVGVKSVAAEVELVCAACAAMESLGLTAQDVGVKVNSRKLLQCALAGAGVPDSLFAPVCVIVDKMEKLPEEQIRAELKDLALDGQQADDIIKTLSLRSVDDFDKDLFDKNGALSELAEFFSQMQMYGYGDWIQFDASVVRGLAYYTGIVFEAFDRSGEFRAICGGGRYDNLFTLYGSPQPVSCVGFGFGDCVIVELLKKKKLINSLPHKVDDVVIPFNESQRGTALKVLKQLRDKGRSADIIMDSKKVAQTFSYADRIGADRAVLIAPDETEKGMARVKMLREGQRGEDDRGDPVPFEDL

[3] = target: Chromo domain-containing protein 1 (Saccharomyces cerevisiae (strain ATCC 204508 / S288c) (Baker's yeast), UniProt P32657); experiment: ScCHD-1 Enzyme Inhibition Assay; assay type: functional
Chromo domain-containing protein 1, sequence (P32657 whole entry, the tested form may be a part): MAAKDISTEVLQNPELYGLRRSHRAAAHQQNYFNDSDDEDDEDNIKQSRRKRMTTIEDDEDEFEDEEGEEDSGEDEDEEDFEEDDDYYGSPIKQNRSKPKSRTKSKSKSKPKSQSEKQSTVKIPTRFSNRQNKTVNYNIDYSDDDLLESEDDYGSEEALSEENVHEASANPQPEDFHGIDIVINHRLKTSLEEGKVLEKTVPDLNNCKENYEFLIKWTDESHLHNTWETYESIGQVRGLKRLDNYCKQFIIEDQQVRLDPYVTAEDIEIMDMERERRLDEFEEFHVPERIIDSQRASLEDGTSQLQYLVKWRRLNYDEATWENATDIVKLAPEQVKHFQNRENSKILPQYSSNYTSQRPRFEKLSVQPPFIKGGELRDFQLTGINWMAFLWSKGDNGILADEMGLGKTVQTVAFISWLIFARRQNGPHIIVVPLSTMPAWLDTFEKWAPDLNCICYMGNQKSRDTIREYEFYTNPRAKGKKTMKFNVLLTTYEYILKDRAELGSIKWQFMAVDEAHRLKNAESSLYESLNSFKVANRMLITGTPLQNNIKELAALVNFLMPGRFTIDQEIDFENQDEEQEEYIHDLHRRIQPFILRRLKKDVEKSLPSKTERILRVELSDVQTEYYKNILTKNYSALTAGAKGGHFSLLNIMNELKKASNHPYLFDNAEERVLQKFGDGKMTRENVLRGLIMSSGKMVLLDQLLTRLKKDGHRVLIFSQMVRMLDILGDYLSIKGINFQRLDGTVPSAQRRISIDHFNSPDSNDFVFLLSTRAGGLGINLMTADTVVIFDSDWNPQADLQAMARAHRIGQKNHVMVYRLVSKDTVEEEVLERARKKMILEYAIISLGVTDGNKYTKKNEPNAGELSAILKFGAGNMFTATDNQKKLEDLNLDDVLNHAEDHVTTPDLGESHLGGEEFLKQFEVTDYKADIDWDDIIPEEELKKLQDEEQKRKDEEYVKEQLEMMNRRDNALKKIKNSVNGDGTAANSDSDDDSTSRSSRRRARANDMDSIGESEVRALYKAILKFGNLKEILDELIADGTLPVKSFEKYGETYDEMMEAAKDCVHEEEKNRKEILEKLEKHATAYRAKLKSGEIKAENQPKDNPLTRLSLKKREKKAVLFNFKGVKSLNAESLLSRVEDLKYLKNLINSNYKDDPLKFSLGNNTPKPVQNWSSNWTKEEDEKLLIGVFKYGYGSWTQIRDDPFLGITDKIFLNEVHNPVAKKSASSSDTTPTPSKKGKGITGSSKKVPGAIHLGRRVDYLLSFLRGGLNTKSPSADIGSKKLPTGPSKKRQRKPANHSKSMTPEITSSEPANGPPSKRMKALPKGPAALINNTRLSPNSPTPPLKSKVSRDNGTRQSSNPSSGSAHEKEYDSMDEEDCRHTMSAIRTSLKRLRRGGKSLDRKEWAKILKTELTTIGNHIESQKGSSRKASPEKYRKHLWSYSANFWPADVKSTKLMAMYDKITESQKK

[4] = microbe, parasite or virus in culture; conditions: Mycobacterium tuberculosis, 72 h, read-out: pIC50 (converted)
[5] = microbe, parasite or virus in culture; conditions: Mycobacterium tuberculosis, 96 h, read-out: pIC50 (converted)
Leishmania donovani = experiment: Leishmania intramacrophage assay; assay type: functional, organism-based; conditions: for IC50: Leishmania donovani
[6] = In vitro enzyme assay to detect hydrolysis of chlorophenol red-beta-D-[…] directly proportional to the number of Toxoplasma stably expressing beta-galactosidase; assay type: functional, organism-based, Toxoplasma gondii; conditions: Toxoplasma gondii
Plasmodium falciparum = experiment: Calibr Malaria Delayed Death Assay SOP; assay type: functional, organism-based
Trypanosoma brucei = experiment: Trypanosoma brucei 72 hour study; assay type: functional, organism-based
ClpP1P2 = ClpP1P2 (Mycobacterium tuberculosis (strain ATCC 25618 / H37Rv), UniProt P9WPC3+P9WPC5); experiment: in vitro assay to detect presence of AMC directly proportional to the activity of ClpP1P2. GHDDI collaboration.; assay type: functional
ClpP1P2, sequence (P9WPC5 whole entry): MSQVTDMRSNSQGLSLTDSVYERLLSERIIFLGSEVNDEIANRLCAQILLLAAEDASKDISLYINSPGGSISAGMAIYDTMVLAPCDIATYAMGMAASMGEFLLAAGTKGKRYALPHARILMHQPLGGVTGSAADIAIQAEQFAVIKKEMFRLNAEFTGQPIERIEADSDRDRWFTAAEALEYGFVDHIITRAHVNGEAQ
ClpP1P2, sequence (P9WPC3 whole entry): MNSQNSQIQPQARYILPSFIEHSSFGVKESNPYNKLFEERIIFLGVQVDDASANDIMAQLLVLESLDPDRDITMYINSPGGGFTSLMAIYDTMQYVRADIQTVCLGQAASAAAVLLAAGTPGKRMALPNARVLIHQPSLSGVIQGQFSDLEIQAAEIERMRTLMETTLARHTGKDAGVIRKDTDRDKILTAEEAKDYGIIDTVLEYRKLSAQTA

[7] = target: AMP-activated protein kinase, AMPK; experiment: AMP-dependent Kinase enzyme assay. An in vitro enzyme assay that detects ADP turnover that is directly proportional to AMPK activity. This uses naive AMPK that is activated during the assay with MK-8722; assay type: functional, Homo sapiens

SMILES | pIC50 [1] | IC50 (Proteasome subunit beta) | pIC50 [2] | also measured
Cc1ccc(N2CC[C@H]3O[C@@H](C(=O)NCc4ccco4)CC[C@H]32)nn1.O=C(O)C(F)(F)F | < 4 | > 100 µM |  | 
Cn1cc(-c2csc(N3CCN(C(=O)OC(C)(C)C)CC3)n2)cn1 |  |  | 4.669 and 4.891 | Percent Effect (Schistosoma mansoni): -8.994%
Cc1cnn(CC2CCCN2CC(=O)N(C)Cc2ccc(C)o2)c1 (stereo not given) | < 4 | > 100 µM |  | 
CCC(C)NC(=O)NCCCn1nc2ccccn2c1=O (stereo not given) |  |  | < 4.21 | IC50 (Histidine--tRNA ligase): > 100 µM
COCC1CCCN(C(=O)c2cc(Cn3ccc4ccccc43)[nH]n2)C1 (stereo not given) |  |  | < 4.21 | IC50 [3]: > 29.5 µM and 18.8 µM
Cc1nc(CN2CCOC(CNc3cccnn3)C2)oc1C (stereo not given) | < 4 | > 100 µM |  | 
Cn1cccc1C(=O)N1CCC2(CC1)CN(c1cncnc1)C(=O)CO2 | < 4 | > 100 µM |  | 
COc1cc(CN(C)C(=O)Cc2c(C)nn(C)c2C)ccc1OC(F)F |  |  | 5.786 [middle of 4 runs] | Percent Effect (Schistosoma mansoni): -34.16%
Cc1noc(NC(=O)c2ccc(C)c(F)c2)n1 |  |  | 4.682 and < 4.57 | IC50 [4]: 30.5 µM; IC50 [5]: 27.1 µM
Cc1ccc(-c2cc(C(=O)NC(C)C(=O)N3CCCCC3)on2)cc1 (stereo not given) | 4.246 and 4.264 | 26.1 µM and 26.7 µM |  | 
NC(=O)c1nc(COc2ccc3c(c2)OCO3)no1 | < 4 | 8.85 µM and 10.5 µM |  | 
Cc1cnn(CC2CN(c3ncnc4ccsc34)CCO2)c1 (stereo not given) |  |  | 5.764 [middle of 4 runs] | IC50 (Leishmania donovani): > 50.1 µM
Cc1ccc(-c2nc(CN3CCC(C(=O)N(C)C)CC3)cs2)o1 | < 4 | 46.3 µM and 43.1 µM |  | 
COc1ccccc1CNC(=O)C1=NN(c2ccc(C)cc2)C(=O)CN1 |  |  | 4.606 and 4.808 | pIC50 (Leishmania donovani): < 4.3 and 4.742; IC50 [6]: 10.8 µM
CCc1nc(COc2ccc(OCc3cnn(C)c3)cc2)no1 | 4.267 and 4.334 | 12.3 µM and 13.3 µM |  | 
CN(C(=O)Cc1ccc(NC(=O)NC2CCC2)cc1)c1ccccc1 | < 4 | > 100 µM |  | 

SMILES | pIC50 [1] | IC50 (Proteasome subunit beta) | pIC50 [2] | also measured
COc1cccc(-c2nc(CNCCn3cccn3)cs2)c1 | 4.359 and 4.346 | 13.4 µM and 11.8 µM |  | 
Cc1nc[nH]c1CN(C)CC1CCCN(CCc2ccc(Cl)cc2)C1 (stereo not given) |  |  | 4.612 and 4.41 | pIC50 (Plasmodium falciparum): 6.162; IC50 (Plasmodium falciparum; Plasmodium falciparum): 0.565 µM; pIC50 (Leishmania donovani): 5.148; IC50 (Leishmania donovani): 8.56 µM; Percent Effect (Schistosoma mansoni): 102.7%; pIC50 (Trypanosoma brucei): 5.168 and 5.164; IC50 (Trypanosoma brucei; Trypanosoma brucei, 72 h): 6.79 µM
O=C(c1cn(-c2ccccc2Cl)nn1)N1CCCSCC1 | 4.282 and 4.315 | 14.2 µM and 16.4 µM |  | 
Clc1ccc2cccnc2c1CN1CCCC1Cn1cncn1 (stereo not given) |  |  | 4.696 and 4.448 | 
CS(=O)(=O)c1ccc(NC(=O)N2CCc3sccc3C2)cn1 |  |  | 4.408 and 4.389 | 
CC1CN(CC2CCCCC2)CCN1c1ccc2nncn2n1 (stereo not given) |  |  | 4.49 and 4.459 | IC50 [3]: > 29.5 µM; IC50 (ClpP1P2): > 100 µM
CN1C(=O)C(C)(C)COc2cc(NS(=O)(=O)Cc3ccccc3)ccc21 |  |  | < 4.21 and 4.593 | Percent Effect (Schistosoma mansoni): 31.95%
CCn1c(C2CCCN(Cc3nccn3CCOC)C2)nn(C)c1=O (stereo not given) |  |  | < 4.21 | 
Cc1nc(C)n(CC2CCCN(c3ncnc4sccc34)C2)n1 (stereo not given) |  |  | 5.597 and 5.199 | 
OCC1CCCN1c1cc(NCc2ccc(Cl)s2)ncn1 (stereo not given) |  |  | 4.462 and 4.49 | 
CC(C)n1ccc(-c2cc(C(=O)N3CCCC3)c3ccccn23)n1 |  |  | < 4.21 | pIC50 [7]: < 4
COc1cccc(CNc2cnn(C)c(=O)c2Cl)c1 |  |  | 4.709 and 5.107 | 
CC(C1CC1)N(C)C(=O)c1cnc(-c2ccc3c(c2)OCO3)s1 (stereo not given) | 4.375 and 4.324 | 13.7 µM and 13.1 µM |  | Percent Effect (Schistosoma mansoni): 12.48%
CC(=O)N1C[C@@H](c2ccsc2)[C@@H]2CN(Cc3cccc(Cl)c3)CC[C@@H]21 |  |  | 4.483 and 4.43 | 
COc1cccc(-c2nc(C)c(C(=O)NC(CO)CCSC)s2)c1 (stereo not given) | 4.212 | 27.3 µM and 32.3 µM |  | 
